US5686486A, “4-hydroxy-benzopyran-2-ones and 4-hydroxy-cycloalkyl[b]pyran-2-ones useful to treat retroviral infections” (priority 1995, dated 1997)
“And” between values parts separate entries of the source, which are not always exact repeats. Equal values may be shown once.

What was measured:
HIV-1 protease [1] = biological target: T1, HIV-1 protease (Human immunodeficiency virus type 1 group M subtype B, UniProt P04585); assay: biochemical; conditions: read-out: HIV-1 FITC KI
Method: Determination of Ki values utilizes the same materials and equipment employed for percent inhibition studies. Two-fold serial dilutions are made for a given inhibitor from 2, 3 or 4 starting concentrations with a total of 24, 36 or 48 individual inhibitor concentrations. These dilutions are performed utilizing the BioMek robotics system. The assay consists of 10 μL of 40 nM HIV-1 protease, 10 μL of the various inhibitor concentrations, and 20 μL of 200 μM substrate (40 μL total). The reaction is allowed to proceed for 90 min at room temperature, terminated with 40 μL of avidin beads and processed (supra vide). An inhibitor with a known Ki is run in parallel to verify the validity of the assay. The data is processed utilizing a computer program employing a nonlinear least square analysis of the data to generate the Ki values.

HIV-1 protease [2] = biological target: T1, HIV-1 protease; assay: biochemical; conditions: for inhibition at 0.123 µM: read-out: HIV-1 Protease % Inhib, dose 0.123 uM; for inhibition at 0.37 µM: read-out: HIV-1 Protease % Inhib, dose 0.370 uM; for inhibition at 1.1 µM: read-out: HIV-1 Protease % Inhib, dose 1.100 uM; for inhibition at 3.3 µM: read-out: HIV-1 Protease % Inhib, dose 3.300 uM; for inhibition at 10 µM: read-out: HIV-1 Protease % Inhib, dose 10.000 uM; for inhibition at 30 µM: read-out: HIV-1 Protease % Inhib, dose 30.000 uM; for inhibition at 1 µM: read-out: HIV-1 Protease % Inhib, dose 1.000 uM; for inhibition at 100 µM: read-out: HIV-1 Protease % Inhib, dose 100.000 uM; for inhibition at 0.41 µM: read-out: HIV-1 Protease % Inhib, dose 0.410 uM; for inhibition at 1.23 µM: read-out: HIV-1 Protease % Inhib, dose 1.230 uM; for inhibition at 3.7 µM: read-out: HIV-1 Protease % Inhib, dose 3.700 uM; for inhibition at 11 µM: read-out: HIV-1 Protease % Inhib, dose 11.000 uM; for inhibition at 33 µM: read-out: HIV-1 Protease % Inhib, dose 33.000 uM
Summary of the method: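 Percent inhibition derived from fluorescent cleavage product separated by filtration after streptavidin-bead capture of intact biotin/FITC substrate. Reaction: enzyme (10 μl, 0.1 μM stock) with substrate (20 μl, 0.2 μM stock) and compound, 1 h at room temperature in dark, pH 5.5 acetate buffer with 1.0 M NaCl and 0.05% NP-40.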

## O=c1oc2c(c(O)c1C(c1ccccc1)C1CC1)CCCCCC2CC1CCCO1 (single isomer, unassigned) [Example 170, 3-(Cyclopropylphenylmethyl)-5,6,7,8,9,10-hexahydro-4-hydroxy-10-[(tetrahydro-2-furanyl)methyl]-2H-cycloocta[b]pyran-2-one]
HIV-1 protease [1]
  Ki: 31 nM
HIV-1 protease [2]
  inhibition at 0.123 µM: 23.2%
  inhibition at 0.37 µM: 62.3%
  inhibition at 1.1 µM: 92.5%
  inhibition at 3.3 µM: 99.3%
  inhibition at 10 µM: 107%
  inhibition at 30 µM: 111%

## O=c1oc2c(c(O)c1C(c1ccccc1)C1CC1)CCCCCC2CC1CCCO1 (single isomer, unassigned) [Example 171, 3-(Cyclopropylphenylmethyl)-5,6,7,8,9,10-hexahydro-4-hydroxy-10-[(tetrahydro-2-furanyl)methyl]-2H-cycloocta[b]pyran-2-one]
HIV-1 protease [1]
  Ki: 23 nM
HIV-1 protease [2]; dose 0.123 uM
  HIV-1 Protease % Inhib: 33.13%
HIV-1 protease [2]; dose 0.370 uM
  HIV-1 Protease % Inhib: 73.44%
HIV-1 protease [2]; dose 1.100 uM
  HIV-1 Protease % Inhib: 96.52%
HIV-1 protease [2]; dose 3.300 uM
  HIV-1 Protease % Inhib: 103.16%
HIV-1 protease [2]; dose 10.000 uM
  HIV-1 Protease % Inhib: 109.98%
HIV-1 protease [2]; dose 30.000 uM
  HIV-1 Protease % Inhib: 108.64%

## CC(C)(C)OC(=O)NCC(=O)Nc1cccc(C(c2c(O)c3c(oc2=O)CCCCCC3)C2CC2)c1 (single isomer, unassigned) [Example 238, Carbamic acid, [2-[[3-(R or S)-[cyclopropyl(5,6,7,8,9,10-hexahydro-4-hydroxy-2-oxo-2H-cycloocta[b]pyran-3-yl)methyl]phenyl]amino]-2-oxoethyl]-, 1,1-dimethyl ethyl ester]
HIV-1 protease [1]
  Ki: 13.4 nM
HIV-1 protease [2]; dose 0.123 uM
  HIV-1 Protease % Inhib: 30.5%
HIV-1 protease [2]
  inhibition at 0.37 µM: 76.4%
  inhibition at 1.1 µM: 96.3%
  inhibition at 3.3 µM: 99.9%
  inhibition at 10 µM: 116%
  inhibition at 30 µM: 115%

## CC(C)(C)OC(=O)NCC(=O)Nc1cccc(C(c2c(O)c3c(oc2=O)CCCCCC3)C2CC2)c1 (single isomer, unassigned) [Example 239, Carbamic acid, [2-[[3-(R or S)-[cyclopropyl(5,6,7,8,9,10)-hexahydro-4-hydroxy-2-oxo-2H-cycloocta[b]pyran-3-yl)methyl]phenyl]amino]-2-oxoethyl]-, 1,1-dimethyl ethyl ester]
HIV-1 protease [1]
  Ki: 2.2 nM
HIV-1 protease [2]; dose 0.123 uM
  HIV-1 Protease % Inhib: 69.55%
HIV-1 protease [2]; dose 0.370 uM
  HIV-1 Protease % Inhib: 88.01%
HIV-1 protease [2]; dose 1.100 uM
  HIV-1 Protease % Inhib: 98.34%
HIV-1 protease [2]; dose 3.300 uM
  HIV-1 Protease % Inhib: 102.72%
HIV-1 protease [2]; dose 10.000 uM
  HIV-1 Protease % Inhib: 107.4%
HIV-1 protease [2]; dose 30.000 uM
  HIV-1 Protease % Inhib: 100.72%

## CC(C)(C)OC(=O)N[C@@H](Cc1c[nH]cn1)C(=O)Nc1cccc(C(c2c(O)c3c(oc2=O)CCCCCC3)C2CC2)c1 (single isomer, unassigned) [Example 240, Carbamic acid, [2-[[3-(R or S)-[cyclopropyl(5,6,7,8,9,10-hexahydro-4-hydroxy-2-oxo-2H-cycloocta[b]pyran-3-yl)methyl]phenyl]amino]-1-(S)-(1H-imidazol-4-ylmethyl)-2-oxoethyl]-, 1,1 dimethyl ethyl ester]
HIV-1 protease [1]
  Ki: 4.2 nM and 5 nM
HIV-1 protease [2]; dose 0.123 uM
  HIV-1 Protease % Inhib: 54.87%
HIV-1 protease [2]; dose 0.370 uM
  HIV-1 Protease % Inhib: 89.42%
HIV-1 protease [2]; dose 1.100 uM
  HIV-1 Protease % Inhib: 111.38%
HIV-1 protease [2]; dose 3.300 uM
  HIV-1 Protease % Inhib: 113.39%
HIV-1 protease [2]; dose 10.000 uM
  HIV-1 Protease % Inhib: 114.19%
HIV-1 protease [2]; dose 30.000 uM
  HIV-1 Protease % Inhib: 109.5%

## CC(C)(C)OC(=O)N[C@@H](Cc1c[nH]cn1)C(=O)Nc1cccc(C(c2c(O)c3c(oc2=O)CCCCCC3)C2CC2)c1 (single isomer, unassigned) [Example 241, Carbamic acid, [2-[[3-(R or S)-[Cyclopropyl(5,6,7,8,9,10-hexahydro-4-hydroxy-2-oxo-2H-cycloocta[b]pyran-3-yl)methyl]phenyl]amino]-1-(S)-(1H-imidazol-4-ylmethyl)-2-oxoethyl]-, 1,1 dimethyl ethyl ester]
HIV-1 protease [1]
  Ki: 1.32 nM and 1.9 nM
HIV-1 protease [2]; dose 0.123 uM
  HIV-1 Protease % Inhib: 81.78%
HIV-1 protease [2]; dose 0.370 uM
  HIV-1 Protease % Inhib: 91.77%
HIV-1 protease [2]; dose 1.100 uM
  HIV-1 Protease % Inhib: 98.65%
HIV-1 protease [2]; dose 3.300 uM
  HIV-1 Protease % Inhib: 101.51%
HIV-1 protease [2]; dose 10.000 uM
  HIV-1 Protease % Inhib: 110.04%
HIV-1 protease [2]; dose 30.000 uM
  HIV-1 Protease % Inhib: 104.34%

## CCCC(c1cccc(NS(=O)(=O)c2ccc(C#N)cc2)c1)c1c(O)c2c(oc1=O)CCCCCC2 (single isomer, unassigned) [Example 437, (R or S)-Benzenesulfonamide, 4-cyano-N-[3-[1-(5,6,7,8,9,10-hexahydro-4-hydroxy-2-oxo-2H-cycloocta[b]pyran-3-yl)butyl]phenyl]-]
HIV-1 protease [1]
  Ki: 2.3 nM
HIV-1 protease [2]
  inhibition at 0.123 µM: 68.1%
  inhibition at 0.37 µM: 87.1%
  inhibition at 1.1 µM: 103%
  inhibition at 3.3 µM: 108%
  inhibition at 10 µM: 112%
  inhibition at 30 µM: 105%

## CCCC(c1cccc(NS(=O)(=O)c2ccc(C#N)cc2)c1)c1c(O)c2c(oc1=O)CCCCCC2 (single isomer, unassigned) [Example 439, (R or S)-Benzenesulfonamide, 4-cyano-N-[3-[1-(5,6,7,8,9,10-hexahydro-4-hydroxy-2-oxo-2H-cycloocta[b]pyran-3-yl)butyl]phenyl]-]
HIV-1 protease [1]
  Ki: 3 nM
HIV-1 protease [2]; dose 0.123 uM
  HIV-1 Protease % Inhib: 60.96%
HIV-1 protease [2]; dose 0.370 uM
  HIV-1 Protease % Inhib: 68.15%
HIV-1 protease [2]; dose 1.100 uM
  HIV-1 Protease % Inhib: 92.17%
HIV-1 protease [2]; dose 3.300 uM
  HIV-1 Protease % Inhib: 92.32%
HIV-1 protease [2]; dose 10.000 uM
  HIV-1 Protease % Inhib: 96.45%
HIV-1 protease [2]; dose 30.000 uM
  HIV-1 Protease % Inhib: 94.26%

## O=c1oc2c(c(O)c1C(c1ccccc1)C1CC1)CCCCCC2 (centres unmarked) [Example 107, 3-(Cyclopropylphenylmethyl)-5,6,7,8,9,10-hexahydro-4-hydroxy-2h-cycloocta[b]pyran-2-one]
HIV-1 protease [1]
  Ki: 20 nM and 12 nM and 7 nM
HIV-1 protease [2]
  inhibition at 1 µM: 90.7%
  inhibition at 10 µM: 101%
  inhibition at 100 µM: 101%

## CCC(c1ccccc1)c1c(O)c2c(oc1=O)CCCC2 (stereo not drawn) [Example 109, 5,6,7,8-Tetrahydro-4-hydroxy-3-(1-phenylpropyl)-2H-l-benzopyran-2-one]
HIV-1 protease [1]
  Ki: 1090 nM
HIV-1 protease [2]
  inhibition at 1 µM: < 10%
  inhibition at 10 µM: 71.9%
  inhibition at 100 µM: 92%

## CCC(c1ccccc1)c1c(O)c2c(oc1=O)CCC2 (centres unmarked) [Example 111, 6,7-Dihydro-4-hydroxy-3-(1-phenylpropyl)-cyclopenta[b]pyran-2(5H)-one]
HIV-1 protease [1]
  Ki: 700 nM
HIV-1 protease [2]
  inhibition at 1 µM: 36.5%
  inhibition at 10 µM: 94.3%
  inhibition at 100 µM: 101%

## O=c1oc2c(c(O)c1C(c1ccccc1)C1CC1)CCCCC2 (centres unmarked) [Example 112, 3-(Cyclopropylphenylmethyl)-6,7,8,9-tetrahydro-4-hydroxy-cyclohepta[b]pyran-2(5H)-one]
HIV-1 protease [1]
  Ki: 96 nM
HIV-1 protease [2]
  inhibition at 1 µM: 70.1%
  inhibition at 10 µM: 102%
  inhibition at 100 µM: 105%

## O=c1oc2c(c(O)c1C(c1ccccc1)C1CC1)CCCC2 (centres unmarked) [Example 115, 3-(Cyclopropylphenylmethyl)-5,6,7,8-tetraphydro-4-hydroxy-2H-1-benzopyran-2-one]
HIV-1 protease [1]
  Ki: 177 nM
HIV-1 protease [2]
  inhibition at 1 µM: 62.1%
  inhibition at 10 µM: 102%
  inhibition at 100 µM: 129%

## O=c1oc2c(c(O)c1C(c1ccccc1)C1CC1)CCCCCCCC2 (centres unmarked) [Example 116, 3-(Cyclopropylphenylmethyl)-5,6,7,8,9,10,11,12-octahydro-4-hydroxy-2H-cyclodeca[b]pyran-2-one]
HIV-1 protease [1]
  Ki: 558 nM
HIV-1 protease [2]
  inhibition at 1 µM: 23%
  inhibition at 10 µM: 65.7%
  inhibition at 100 µM: 102%

## O=c1oc2c(c(O)c1C(c1ccccc1)C1CC1)CCCCCCC2 (centres unmarked) [Example 117, 3-(Cyclopropylphenylmethyl)-6,7,8,9,10,11-hexahydro-4-hydroxy-cyclonona[b]pyran-2(5H)-one]
HIV-1 protease [1]
  Ki: 37 nM
HIV-1 protease [2]
  inhibition at 0.41 µM: 80.1%
  inhibition at 1.23 µM: 94%
  inhibition at 3.7 µM: 101%
  inhibition at 11 µM: 114%
  inhibition at 33 µM: 107%
  inhibition at 100 µM: 100%

## O=C(Nc1cccc(C(c2c(O)c3c(oc2=O)CCCCCC3)C2CC2)c1)OCc1ccccc1 (centres unmarked) [Example 119, Carbamic acid, [3-[cyclopropyl(5,6,7,8,9,10-hexahydro-4-hydroxy-2-oxo-2H-cycloocta[b]pyran-3-yl)methyl]phenyl]-, phenylmethyl ester]
HIV-1 protease [1]
  Ki: 257 nM
HIV-1 protease [2]
  inhibition at 0.41 µM: 27.5%
  inhibition at 1.23 µM: 55.4%
  inhibition at 3.7 µM: 82.5%
  inhibition at 11 µM: 97.7%
  inhibition at 33 µM: 96.8%
  inhibition at 100 µM: 101%

## CC(C)N=C(Nc1cccc(C(c2c(O)c3c(oc2=O)CCCCCC3)C2CC2)c1)NC(C)C (centres unmarked) [Example 120, N-(3-(cyclopropyl-(4-hydroxy-2-oxo-5,6,7,8,9,10-hexahydro-2H-cycloocta[b]pyran-3-yl)-methyl)-phenyl)-N',N"-diisopropyl-guanidine]
HIV-1 protease [1]
  Ki: 982 nM
HIV-1 protease [2]
  inhibition at 0.41 µM: < 10%
  inhibition at 1.23 µM: 22.2%
  inhibition at 3.7 µM: 54.6%
  inhibition at 11 µM: 80.7%
  inhibition at 33 µM: 101%
  inhibition at 100 µM: 106%
